# From ChEMBL document CHEMBL4837225, “Water-soluble derivatives of evodiamine: Discovery of evodiamine-10-phosphate as an orally active antitumor lead compound” (Eur J Med Chem, 2021)
# The source made the active and inactive calls. The calls are words filed in the database; no cut-off is given here.
# Legend:
# [1] = target: DNA topoisomerase 2-alpha (Homo sapiens) (UniProt P11388); assay: Inhibition of TOP2 (unknown origin) assessed as formation of short DNA fragments using supercoiled plasmid DNA at 100 uM by ethidium bromide staining based gel
# A549 = assay: Antiproliferative activity against human A549 cells assessed as inhibition of cell proliferation incubated for 72 hrs by CCK8 assay; format: functional, cell-based; details: A549, 72 h
# [2] = Solubility of the compound in double distilled water; format: physicochemical
# HCT-116 [3] = assay: Antiproliferative activity against human HCT-116 cells assessed as inhibition of cell proliferation incubated for 72 hrs by CCK8 assay; format: functional, cell-based; details: HCT-116, 72 h
# MDA-MB-231 = assay: Antiproliferative activity against human MDA-MB-231 cells assessed as inhibition of cell proliferation incubated for 72 hrs by CCK8 assay; format: functional, cell-based; details: MDA-MB-231, 72 h
# [4] = target: T1, DNA topoisomerase 1 (Homo sapiens) (UniProt P11387); assay: Inhibition of TOP1 (unknown origin) assessed as decrease in relaxation of supercoiled DNA using pBR322 plasmid DNA as substrate at 100 uM by ethidium bromide staining based gel electrophoresis
# T1 sequence (whole entry): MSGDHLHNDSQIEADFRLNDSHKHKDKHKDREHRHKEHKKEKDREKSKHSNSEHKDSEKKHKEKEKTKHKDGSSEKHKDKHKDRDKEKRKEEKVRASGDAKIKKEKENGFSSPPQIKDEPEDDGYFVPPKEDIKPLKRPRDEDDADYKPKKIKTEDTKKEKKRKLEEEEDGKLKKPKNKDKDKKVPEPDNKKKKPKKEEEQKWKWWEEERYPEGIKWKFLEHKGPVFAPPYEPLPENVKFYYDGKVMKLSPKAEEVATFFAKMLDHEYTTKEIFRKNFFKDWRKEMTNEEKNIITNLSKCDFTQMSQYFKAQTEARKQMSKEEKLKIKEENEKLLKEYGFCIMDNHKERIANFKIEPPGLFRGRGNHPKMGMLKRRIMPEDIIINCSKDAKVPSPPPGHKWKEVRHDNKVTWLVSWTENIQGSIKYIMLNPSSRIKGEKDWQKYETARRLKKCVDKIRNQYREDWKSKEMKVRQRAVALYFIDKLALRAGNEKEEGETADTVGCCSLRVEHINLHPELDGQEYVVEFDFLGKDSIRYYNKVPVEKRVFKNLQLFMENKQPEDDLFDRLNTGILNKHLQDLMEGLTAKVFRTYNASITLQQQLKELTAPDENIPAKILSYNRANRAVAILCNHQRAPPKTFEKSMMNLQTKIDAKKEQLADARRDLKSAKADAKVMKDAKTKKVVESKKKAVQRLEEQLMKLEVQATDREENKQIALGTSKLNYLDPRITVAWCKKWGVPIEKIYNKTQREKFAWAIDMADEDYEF
# HCT-116 [5] = assay: Antitumor activity against human HCT-116 cells xenografted in BALB/c nude mouse assessed as inhibition of tumor growth at 16 mg/kg/day, ip BID administered for 21 days measured by caliper; format: functional, organism-based; details: time 21.0 day
# Chain of DNA topoisomerase 2-alpha (Homo sapiens) (P11388 whole entry, the tested form may be a part): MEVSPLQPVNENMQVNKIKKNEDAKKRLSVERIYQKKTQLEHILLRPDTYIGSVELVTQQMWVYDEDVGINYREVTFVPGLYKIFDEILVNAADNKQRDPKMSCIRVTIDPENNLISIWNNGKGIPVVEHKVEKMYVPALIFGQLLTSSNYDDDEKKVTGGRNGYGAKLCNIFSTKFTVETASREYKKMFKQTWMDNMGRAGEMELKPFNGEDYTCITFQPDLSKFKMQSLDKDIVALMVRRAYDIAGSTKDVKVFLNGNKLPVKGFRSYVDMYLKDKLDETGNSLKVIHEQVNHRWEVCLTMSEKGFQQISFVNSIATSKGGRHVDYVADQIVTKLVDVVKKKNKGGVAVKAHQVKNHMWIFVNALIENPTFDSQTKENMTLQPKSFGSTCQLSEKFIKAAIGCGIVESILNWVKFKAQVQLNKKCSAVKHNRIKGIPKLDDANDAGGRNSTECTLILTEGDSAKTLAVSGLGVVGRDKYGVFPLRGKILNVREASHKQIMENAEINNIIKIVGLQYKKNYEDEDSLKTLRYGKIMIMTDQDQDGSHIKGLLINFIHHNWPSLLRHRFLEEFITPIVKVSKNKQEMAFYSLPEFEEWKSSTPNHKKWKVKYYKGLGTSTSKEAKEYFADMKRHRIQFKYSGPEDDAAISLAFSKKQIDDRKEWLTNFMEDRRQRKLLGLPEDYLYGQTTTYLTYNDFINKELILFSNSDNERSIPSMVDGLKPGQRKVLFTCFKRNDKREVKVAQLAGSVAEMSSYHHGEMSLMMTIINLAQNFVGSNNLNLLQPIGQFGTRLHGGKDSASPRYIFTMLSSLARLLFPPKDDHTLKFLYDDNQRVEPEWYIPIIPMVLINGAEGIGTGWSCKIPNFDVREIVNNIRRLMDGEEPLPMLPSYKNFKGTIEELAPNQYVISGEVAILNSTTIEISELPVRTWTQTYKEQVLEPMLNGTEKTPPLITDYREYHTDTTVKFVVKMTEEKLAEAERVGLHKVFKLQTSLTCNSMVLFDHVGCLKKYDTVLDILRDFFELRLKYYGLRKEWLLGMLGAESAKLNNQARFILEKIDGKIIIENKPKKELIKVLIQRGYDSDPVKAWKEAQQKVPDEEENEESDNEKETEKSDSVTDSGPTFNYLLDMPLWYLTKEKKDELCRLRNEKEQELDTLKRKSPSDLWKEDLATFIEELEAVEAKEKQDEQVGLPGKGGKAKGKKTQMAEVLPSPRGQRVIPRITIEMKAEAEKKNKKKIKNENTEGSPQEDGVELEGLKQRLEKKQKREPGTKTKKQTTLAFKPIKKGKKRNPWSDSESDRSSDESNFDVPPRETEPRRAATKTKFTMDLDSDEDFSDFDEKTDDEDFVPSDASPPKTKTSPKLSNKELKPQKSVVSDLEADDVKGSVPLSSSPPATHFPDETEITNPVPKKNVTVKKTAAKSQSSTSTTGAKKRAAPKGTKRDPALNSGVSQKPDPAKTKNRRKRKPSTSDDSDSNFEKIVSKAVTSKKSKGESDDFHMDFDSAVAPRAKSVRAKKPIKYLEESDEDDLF
Structure (SMILES),inhibition [1],IC50 (A549),solubility [2],IC50 (HCT-116 [3]),IC50 (MDA-MB-231),inhibition [4],TGI (HCT-116 [5])
CN1c2ccccc2C(=O)N2CCc3c([nH]c4ccc(NC(=O)C(N)CO)cc34)C21 (centres undefined),Active,6300 nM,20 µg/mL,1900 nM,870 nM,,
CN1c2ccccc2C(=O)N2CCc3c([nH]c4ccc(NC(=O)C(N)CCC(N)=O)cc34)C21 (centres undefined),Active,> 10000 nM,14 µg/mL,5800 nM,> 10000 nM,,
CC(C)[C@H](N)C(=O)Oc1ccc2[nH]c3c(c2c1)CCN1C(=O)c2ccccc2N(C)C31 (some centres undefined),Active,> 10000 nM,18 µg/mL,< 3 nM,49 nM,Active,
CN1c2ccccc2C(=O)N2CCc3c([nH]c4ccc(N)cc34)C21 (centres undefined),Active,4800 nM,10 µg/mL,390 nM,1800 nM,inactive,inactive
CN1c2ccccc2C(=O)N2CCc3c([nH]c4ccc(NS(C)(=O)=O)cc34)C21 (centres undefined),Active,720 nM,29 µg/mL,460 nM,190 nM,,inactive
CSCCC(N)C(=O)Nc1ccc2[nH]c3c(c2c1)CCN1C(=O)c2ccccc2N(C)C31 (centres undefined),Active,> 10000 nM,15 µg/mL,1600 nM,810 nM,,
CN1c2ccccc2C(=O)N2CCc3c([nH]c4ccc(NC(=O)C5CCC(=O)N5)cc34)C21 (centres undefined),Active,> 10000 nM,11 µg/mL,> 10000 nM,> 10000 nM,,
CC(N)C(=O)Nc1ccc2[nH]c3c(c2c1)CCN1C(=O)c2ccccc2N(C)C31 (centres undefined),Active,4900 nM,28 µg/mL,940 nM,520 nM,,
CN1c2ccccc2C(=O)N2CCc3c([nH]c4ccc(OC(=O)CCC(=O)O)cc34)C21 (centres undefined),inactive,5490 nM,15 µg/mL,< 3 nM,260 nM,,
CC[C@@]1(O)C(=O)OCc2c1cc1n(c2=O)Cc2cc3ccccc3nc2-1 [CAMPTOTHECIN],,170 nM,,17 nM,241 nM,,
CN1c2ccccc2C(=O)N2CCc3c([nH]c4ccc(NC(=O)C(N)Cc5ccccc5)cc34)C21 (centres undefined),Active,> 10000 nM,16 µg/mL,4400 nM,> 10000 nM,,
CNCC(=O)Nc1ccc2[nH]c3c(c2c1)CCN1C(=O)c2ccccc2N(C)C31 (centres undefined),Active,> 10000 nM,25 µg/mL,1400 nM,1800 nM,,
CN1c2ccccc2C(=O)N2CCc3c([nH]c4ccc(NC(=O)C5CCCN5)cc34)C21 (centres undefined),Active,> 10000 nM,15 µg/mL,> 10000 nM,> 10000 nM,,
CN1c2ccccc2C(=O)N2CCc3c([nH]c4ccc(OS(N)(=O)=O)cc34)C21 (centres undefined),Active,410 nM,37 µg/mL,40 nM,530 nM,,
CN1c2ccccc2C(=O)N2CCc3c([nH]c4ccc(NC(=O)CCC(=O)O)cc34)C21 (centres undefined),Active,> 10000 nM,16 µg/mL,1400 nM,530 nM,,

# More lines, main results first:
inhibition [1],IC50 (A549),solubility [2],IC50 (HCT-116 [3]),IC50 (MDA-MB-231),inhibition [4],Structure (SMILES),TGI (HCT-116 [5])
Active,> 10000 nM,12 µg/mL,1700 nM,520 nM,,CN1c2ccccc2C(=O)N2CCc3c([nH]c4ccc(NC(=O)C(N)Cc5c[nH]c6ccccc56)cc34)C21 (centres undefined),
Active,5000 nM,23 µg/mL,1100 nM,840 nM,,CN1c2ccccc2C(=O)N2CCc3c([nH]c4ccc(NS(N)(=O)=O)cc34)C21 (centres undefined),
Active,> 10000 nM,17 µg/mL,< 3 nM,20 nM,,CN1c2ccccc2C(=O)N2CCc3c([nH]c4ccc(OC(=O)CCC(=O)OCCN5CCOCC5)cc34)C21 (centres undefined),
Active,> 10000 nM,12 µg/mL,21 nM,> 10000 nM,Active,CN1c2ccccc2C(=O)N2CCc3c([nH]c4ccc(OC(=O)[C@@H](N)COCc5ccccc5)cc34)C21 (some centres undefined),
Active,3700 nM,19 µg/mL,1600 nM,1200 nM,,CN1c2ccccc2C(=O)N2CCc3c([nH]c4ccc(NC(=O)CN)cc34)C21 (centres undefined),
Active,9220 nM,18 µg/mL,< 3 nM,680 nM,,CN1c2ccccc2C(=O)N2CCc3c([nH]c4ccc(OC(=O)CCC(=O)OCCN5CCCCC5)cc34)C21 (centres undefined),
Active,> 10000 nM,11 µg/mL,1600 nM,> 10000 nM,,CC(O)C(N)C(=O)Nc1ccc2[nH]c3c(c2c1)CCN1C(=O)c2ccccc2N(C)C31 (centres undefined),
Active,> 10000 nM,14 µg/mL,> 10000 nM,> 10000 nM,,CC(C)CC(N)C(=O)Nc1ccc2[nH]c3c(c2c1)CCN1C(=O)c2ccccc2N(C)C31 (centres undefined),
Active,2610 nM,24 µg/mL,< 3 nM,2340 nM,Active,CN1c2ccccc2C(=O)N2CCc3c([nH]c4ccc(OC(=O)[C@@H](N)CO)cc34)C21 (some centres undefined),
Active,> 10000 nM,12 µg/mL,1260 nM,550 nM,,CN1c2ccccc2C(=O)N2CCc3c([nH]c4ccc(NC(=O)C(N)Cc5ccc(O)cc5)cc34)C21 (centres undefined),
